In ChEMBL document CHEMBL1132550, “Modeling of amino-terminal domains of group I metabotropic glutamate receptors: structural motifs affecting ligand selectivity” (J Med Chem, 1999):

Columns and labels:
[1] = target: Metabotropic glutamate receptor 5 (Homo sapiens, UniProt P41594); assay: Compound was tested for it's […] activity against Ser152 and Thr175 (Metabotropic glutamate receptor 5); format: functional
[2] = target: Metabotropic glutamate receptor 1 (Homo sapiens, UniProt Q13255); assay: Compound was tested for its […] activity against Ser165 and Thr188 (Metabotropic glutamate receptor 1) receptor.; format: functional
Sequence of Metabotropic glutamate receptor 1 (Q13255 whole entry): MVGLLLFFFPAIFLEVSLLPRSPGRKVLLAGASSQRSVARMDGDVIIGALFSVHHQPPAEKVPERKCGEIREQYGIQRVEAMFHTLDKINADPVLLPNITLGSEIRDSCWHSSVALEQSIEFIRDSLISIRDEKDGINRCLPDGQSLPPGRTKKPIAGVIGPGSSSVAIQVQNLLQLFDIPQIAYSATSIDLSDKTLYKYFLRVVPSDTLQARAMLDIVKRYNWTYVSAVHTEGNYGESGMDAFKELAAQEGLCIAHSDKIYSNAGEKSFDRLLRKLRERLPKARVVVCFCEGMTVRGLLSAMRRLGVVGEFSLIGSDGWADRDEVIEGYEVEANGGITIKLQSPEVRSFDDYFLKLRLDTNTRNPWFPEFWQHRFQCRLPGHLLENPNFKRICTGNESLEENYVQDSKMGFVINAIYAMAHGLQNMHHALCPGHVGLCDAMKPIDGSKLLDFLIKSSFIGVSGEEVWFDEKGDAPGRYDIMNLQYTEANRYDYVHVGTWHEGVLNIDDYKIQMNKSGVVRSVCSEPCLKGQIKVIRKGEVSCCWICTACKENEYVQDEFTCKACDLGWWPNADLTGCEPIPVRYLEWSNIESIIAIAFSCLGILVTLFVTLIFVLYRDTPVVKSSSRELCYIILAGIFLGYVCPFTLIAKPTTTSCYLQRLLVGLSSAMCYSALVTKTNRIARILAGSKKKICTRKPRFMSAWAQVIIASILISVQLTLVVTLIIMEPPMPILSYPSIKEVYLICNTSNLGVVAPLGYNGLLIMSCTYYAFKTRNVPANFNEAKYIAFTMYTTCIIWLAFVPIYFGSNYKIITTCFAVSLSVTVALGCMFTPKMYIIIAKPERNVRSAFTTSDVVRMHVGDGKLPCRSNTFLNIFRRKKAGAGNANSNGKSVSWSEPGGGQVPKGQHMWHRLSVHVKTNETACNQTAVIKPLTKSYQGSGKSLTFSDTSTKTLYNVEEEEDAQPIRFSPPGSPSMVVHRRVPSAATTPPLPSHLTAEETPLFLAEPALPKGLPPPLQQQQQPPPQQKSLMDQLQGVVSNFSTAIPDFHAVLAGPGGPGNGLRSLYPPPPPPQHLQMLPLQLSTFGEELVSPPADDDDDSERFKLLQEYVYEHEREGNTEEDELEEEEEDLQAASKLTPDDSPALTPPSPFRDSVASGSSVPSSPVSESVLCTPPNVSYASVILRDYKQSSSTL

Sequence of Metabotropic glutamate receptor 5 (P41594 whole entry): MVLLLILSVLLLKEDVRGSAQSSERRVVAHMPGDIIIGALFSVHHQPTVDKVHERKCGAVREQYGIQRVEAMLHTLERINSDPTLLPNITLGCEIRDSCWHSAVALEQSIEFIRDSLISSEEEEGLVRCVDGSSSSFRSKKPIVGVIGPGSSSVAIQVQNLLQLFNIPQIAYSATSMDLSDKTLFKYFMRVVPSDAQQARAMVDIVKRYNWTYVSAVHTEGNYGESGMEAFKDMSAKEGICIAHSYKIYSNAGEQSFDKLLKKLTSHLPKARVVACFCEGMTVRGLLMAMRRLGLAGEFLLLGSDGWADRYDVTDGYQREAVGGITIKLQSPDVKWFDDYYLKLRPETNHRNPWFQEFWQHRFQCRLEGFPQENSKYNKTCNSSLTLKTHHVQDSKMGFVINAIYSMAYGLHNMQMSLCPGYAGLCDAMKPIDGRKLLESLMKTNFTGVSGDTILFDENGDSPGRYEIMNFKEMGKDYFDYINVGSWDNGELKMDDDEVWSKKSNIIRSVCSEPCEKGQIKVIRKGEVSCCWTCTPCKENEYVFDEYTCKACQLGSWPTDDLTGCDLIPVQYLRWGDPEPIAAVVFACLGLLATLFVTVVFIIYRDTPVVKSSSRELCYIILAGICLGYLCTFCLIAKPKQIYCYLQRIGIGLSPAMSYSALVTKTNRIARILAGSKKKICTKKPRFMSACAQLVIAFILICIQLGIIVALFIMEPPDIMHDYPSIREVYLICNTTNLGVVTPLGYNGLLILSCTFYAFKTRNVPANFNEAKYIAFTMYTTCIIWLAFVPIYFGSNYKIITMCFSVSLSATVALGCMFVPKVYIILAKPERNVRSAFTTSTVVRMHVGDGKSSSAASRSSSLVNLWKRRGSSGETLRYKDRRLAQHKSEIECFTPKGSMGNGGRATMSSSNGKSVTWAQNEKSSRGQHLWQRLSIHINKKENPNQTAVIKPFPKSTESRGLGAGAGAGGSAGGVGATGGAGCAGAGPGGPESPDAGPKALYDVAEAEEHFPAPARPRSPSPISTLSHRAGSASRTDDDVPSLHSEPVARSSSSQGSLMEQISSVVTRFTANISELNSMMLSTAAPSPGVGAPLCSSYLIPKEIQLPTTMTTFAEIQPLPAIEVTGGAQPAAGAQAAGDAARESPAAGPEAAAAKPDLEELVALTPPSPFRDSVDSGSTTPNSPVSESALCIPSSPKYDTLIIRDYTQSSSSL

N[C@]1(C(=O)O)CCc2cc(C(=O)O)ccc21
IC50 [1]: > 1000 µM
IC50 [2]: 214 µM

NC(C(=O)O)c1cc(O)ccc1Cl (stereo not given)
EC50 [1]: 750 µM

N[C@H](C(=O)O)c1cc(O)cc(O)c1
EC50 [2]: 6.6 µM

NC(C(=O)O)C12CC(C(=O)O)(C1)C2 (stereo not given)
EC50 [1]: 103 µM

Cc1cc(C(=O)O)ccc1[C@H](N)C(=O)O
IC50 [1]: > 100 µM

Cc1ccc(O)c(/N=N/c2ccccc2)n1
IC50 [1]: 0.37 µM
IC50 [2]: > 100 µM

Cc1cccc(/C=C/c2ccccc2)n1
IC50 [1]: 0.29 µM
IC50 [2]: > 100 µM
